Converted amounts (≈) assume the structure as drawn.
Legend:
Assay in all cases: MIC, broth-microdilution (CLSI VET01-A4)
Format in all cases: cell-based
[1] = system: Mannheimia haemolytica MH 10720 (154, BRD field isolate); settings: Mannheimia haemolytica MH 10720; for MIC: read-out: MIC MH 10720
Summary of the method: (§1)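 Broth microdilution per CLSI VET01-A4 using doubling dilution series of test compound; results interpreted per CLSI VET01-S3. MIC recorded as lowest concentration giving no turbidity visible to the unaided eye.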

[2] = system: Mannheimia haemolytica MH 12587 (1071, BRD field isolate, macrolide-resistance: erm+, E+); settings: Mannheimia haemolytica MH 12587, macrolide-resistant
Summary of the method: as §1

[3] = system: Mannheimia haemolytica MH 6357 (M7/2, reference strain, cattle infection strain); settings: Mannheimia haemolytica MH 6357; read-out: MIC MH 6357
Summary of the method: as §1

[4] = system: Mannheimia haemolytica MH 6374 (ATCC 33396, reference strain); settings: Mannheimia haemolytica MH 6374; read-out: MIC MH 6374
Summary of the method: as §1

[5] = system: Pasteurella multocida PM 10775 (080130003051, BRD field isolate); settings: Pasteurella multocida PM 10775
Summary of the method: as §1

[6] = system: Pasteurella multocida PM 12080 (IV102277-0093, BRD field isolate); settings: Pasteurella multocida PM 12080; for MIC: read-out: MIC PM 12080
Summary of the method: as §1

[7] = system: Pasteurella multocida PM 6267 (P 2225 (L386), reference strain, mouse infection strain); settings: Pasteurella multocida PM 6267
Summary of the method: as §1

[8] = system: Pasteurella multocida PM 6391 (ATCC 43137, reference strain); settings: Pasteurella multocida PM 6391; for MIC: read-out: MIC PM 6391
Summary of the method: as §1

[9] = system: Mannheimia haemolytica MH 13065 (XB0446-6003.9, BRD field isolate)
Summary of the method: (§2)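 MIC read by eye as lowest compound concentration without visible growth (no turbidity), interpreted per CLSI VET01-S3. Doubling-dilution broth-microdilution trays, run according to CLSI VET01-A4.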

[10] = system: Mannheimia haemolytica MH 13093 (XB0472-6014.1, BRD field isolate)
Summary of the method: as §2

Structure (SMILES)	MIC MH 10720 [1]	MIC MH 12587 [2] [µM]	MIC [3] [µM]	MIC [4] [µM]	MIC PM 10775 [5]	MIC PM 12080 [6]	MIC PM 6267 [7]	MIC PM 6391 [8]	MIC [9] [µM]	MIC [10] [µM]	MIC [6] [µM]	MIC [8] [µM]	MIC [1] [µM]	MIC ([7]; read-out: MIC PM 6267) [µM]
CSC(C)(C)[C@H](NC(=O)c1ccc(C#Cc2ccc(CNCc3ccncc3)cc2)cc1)C(=O)NO [Compound 587]	<=0.1 μM	0.8 (≈ 0.402 µg/mL)	0.4 (≈ 0.201 µg/mL)	0.8 (≈ 0.402 µg/mL)	<=0.1 μM	<=0.1 μM	<=0.1 μM	<=0.1 μM	0.4 (≈ 0.201 µg/mL)	0.4 (≈ 0.201 µg/mL)	–	–	–	–
C[C@@H](O)[C@H](NC(=O)c1ccc(C#Cc2ccc(CN(C)Cc3ccccc3)o2)cc1)C(=O)NO [Compound 205]	<=0.1 μM	1.6 (≈ 0.738 µg/mL)	0.8 (≈ 0.369 µg/mL)	0.8 (≈ 0.369 µg/mL)	<=0.1 μM	–	<=0.1 μM	–	0.8 (≈ 0.369 µg/mL)	1.6 (≈ 0.738 µg/mL)	0.2 (≈ 0.0923 µg/mL)	0.4 (≈ 0.185 µg/mL)	–	–
CC(C)(O)C(NC(=O)c1ccc(C#Cc2ccc(CNCc3ccco3)cc2)cc1)C(=O)NO (stereo not shown) [Compound 577]	<=0.1 μM	0.8 (≈ 0.369 µg/mL)	0.4 (≈ 0.185 µg/mL)	0.2 (≈ 0.0923 µg/mL)	<=0.1 μM	<=0.1 μM	<=0.1 μM	<=0.1 μM	0.2 (≈ 0.0923 µg/mL)	0.4 (≈ 0.185 µg/mL)	–	–	–	–
C[C@@H](O)[C@H](NC(=O)c1ccc(C#Cc2ccc(N)cc2)cc1)C(=O)NO [C. 245, 4-[2-(4-aminophenyl)ethynyI]-N-[(1S,2R)-2-hydroxy-1-(hydroxycarbamoyl)propyl]benzamide]	<=0.1 μM	0.8 (≈ 0.283 µg/mL)	0.2 (≈ 0.0707 µg/mL)	0.4 (≈ 0.141 µg/mL)	<=0.1 μM	<=0.1 μM	<=0.1 μM	–	0.4 (≈ 0.141 µg/mL)	0.4 (≈ 0.141 µg/mL)	–	0.2 (≈ 0.0707 µg/mL)	–	–
CC(C)(N)C(NC(=O)c1ccc(C#Cc2ccc(CNCC(F)(F)F)cc2)cc1)C(=O)NO (racemic) [Compound 623]	<=0.1 μM	1.6 (≈ 0.74 µg/mL)	0.8 (≈ 0.37 µg/mL)	0.4 (≈ 0.185 µg/mL)	<=0.1 μM	<=0.1 μM	<=0.1 μM	–	0.8 (≈ 0.37 µg/mL)	0.8 (≈ 0.37 µg/mL)	–	0.2 (≈ 0.0925 µg/mL)	–	–
COc1ccc(CNCc2ccc(C#Cc3ccc(C(=O)N[C@H](C(=O)NO)[C@@H](C)O)cc3)s2)cc1 [Compound 306]	<=0.1 μM	0.8 (≈ 0.395 µg/mL)	0.4 (≈ 0.197 µg/mL)	0.4 (≈ 0.197 µg/mL)	<=0.1 μM	–	<=0.1 μM	–	0.4 (≈ 0.197 µg/mL)	0.8 (≈ 0.395 µg/mL)	0.2 (≈ 0.0987 µg/mL)	0.2 (≈ 0.0987 µg/mL)	–	–
CC(C)C(NC(=O)c1ccc(C#Cc2ccc(CNCc3cccnc3)cc2)cc1)C(=O)NO (stereo not shown) [Compound 287]	<=0.1 μM	0.8 (≈ 0.365 µg/mL)	0.4 (≈ 0.183 µg/mL)	0.4 (≈ 0.183 µg/mL)	<=0.1 μM	–	<=0.1 μM	–	0.8 (≈ 0.365 µg/mL)	0.8 (≈ 0.365 µg/mL)	0.2 (≈ 0.0913 µg/mL)	0.4 (≈ 0.183 µg/mL)	–	–
C=CCNCc1ccc(C#Cc2ccc(C(=O)NC(C(=O)NO)C(C)(C)SC)cc2)cc1 (stereo not shown) [C. 582]	<=0.1 μM	1.6 (≈ 0.723 µg/mL)	0.8 (≈ 0.361 µg/mL)	0.8 (≈ 0.361 µg/mL)	<=0.1 μM	–	<=0.1 μM	–	0.8 (≈ 0.361 µg/mL)	0.8 (≈ 0.361 µg/mL)	0.4 (≈ 0.181 µg/mL)	0.4 (≈ 0.181 µg/mL)	–	–
C[C@@H](O)[C@H](NC(=O)c1ccc(C#Cc2ccc(CNCc3ccnc(Cl)c3)cc2)cc1)C(=O)NO [Compound 257]	<=0.1 μM	0.8 (≈ 0.394 µg/mL)	0.2 (≈ 0.0986 µg/mL)	0.2 (≈ 0.0986 µg/mL)	<=0.1 μM	<=0.1 μM	<=0.1 μM	<=0.1 μM	0.4 (≈ 0.197 µg/mL)	0.4 (≈ 0.197 µg/mL)	–	–	–	–
C[C@@H](O)[C@H](NC(=O)c1ccc(C#Cc2ccc(CNCc3ccccc3)cc2)cc1)C(=O)NO [Compound 2]	<=0.1 μM	0.8 (≈ 0.366 µg/mL)	0.2 (≈ 0.0915 µg/mL)	0.2 (≈ 0.0915 µg/mL)	<=0.1 μM	<=0.1 μM	<=0.1 μM	<=0.1 μM	1 (≈ 0.458 µg/mL)	0.8 (≈ 0.366 µg/mL)	–	–	–	–
C[C@@H](O)[C@H](NC(=O)c1ccc(C#Cc2ccc(CNCc3ccccn3)cc2)cc1)C(=O)NO [C. 258]	–	1.6 (≈ 0.734 µg/mL)	0.4 (≈ 0.183 µg/mL)	0.8 (≈ 0.367 µg/mL)	<=0.1 μM	<=0.1 μM	<=0.1 μM	–	0.8 (≈ 0.367 µg/mL)	0.8 (≈ 0.367 µg/mL)	–	0.2 (≈ 0.0917 µg/mL)	0.2 (≈ 0.0917 µg/mL)	–
CSC(C)(C)[C@H](NC(=O)c1ccc(C#Cc2ccc(CNCc3ccccn3)cc2)cc1)C(=O)NO [Compound 595]	–	1.6 (≈ 0.804 µg/mL)	0.8 (≈ 0.402 µg/mL)	1.6 (≈ 0.804 µg/mL)	<=0.1 μM	–	–	–	0.8 (≈ 0.402 µg/mL)	0.8 (≈ 0.402 µg/mL)	0.4 (≈ 0.201 µg/mL)	0.8 (≈ 0.402 µg/mL)	0.2 (≈ 0.101 µg/mL)	0.2 (≈ 0.101 µg/mL)
C[C@@H](O)[C@H](NC(=O)c1ccc(C#Cc2ccc(CNCc3cccnc3)cc2)cc1)C(=O)NO [Compound 256]	<=0.1 μM	1.6 (≈ 0.734 µg/mL)	0.4 (≈ 0.183 µg/mL)	0.4 (≈ 0.183 µg/mL)	<=0.1 μM	<=0.1 μM	<=0.1 μM	<=0.1 μM	0.8 (≈ 0.367 µg/mL)	0.8 (≈ 0.367 µg/mL)	–	–	–	–
CC(C)(C(NC(=O)c1ccc(C#Cc2ccc(CNCc3ccccc3)cc2)cc1)C(=O)NO)[N+](=O)[O-] (racemic) [Compound 652]	<=0.1 μM	0.8 (≈ 0.4 µg/mL)	0.8 (≈ 0.4 µg/mL)	0.8 (≈ 0.4 µg/mL)	<=0.1 μM	<=0.1 μM	<=0.1 μM	–	0.4 (≈ 0.2 µg/mL)	0.8 (≈ 0.4 µg/mL)	–	0.4 (≈ 0.2 µg/mL)	–	–
CC(C)(O)C(NC(=O)c1ccc(C#Cc2ccc(CNCc3cccnc3)cc2)cc1)C(=O)NO (stereo not shown) [Compound 574]	<=0.1 μM	1.6 (≈ 0.756 µg/mL)	0.8 (≈ 0.378 µg/mL)	0.4 (≈ 0.189 µg/mL)	<=0.1 μM	<=0.1 μM	<=0.1 μM	<=0.1 μM	0.4 (≈ 0.189 µg/mL)	0.8 (≈ 0.378 µg/mL)	–	–	–	–
CSC(C)(C)[C@H](NC(=O)c1ccc(C#Cc2ccc(CNCc3ccco3)cc2)cc1)C(=O)NO [Compound 596]	<=0.1 μM	0.8 (≈ 0.393 µg/mL)	0.4 (≈ 0.197 µg/mL)	0.8 (≈ 0.393 µg/mL)	<=0.1 μM	<=0.1 μM	<=0.1 μM	–	0.4 (≈ 0.197 µg/mL)	0.4 (≈ 0.197 µg/mL)	–	0.2 (≈ 0.0983 µg/mL)	–	–
C[C@@H](O)[C@H](NC(=O)c1ccc(C#Cc2ccc(CN3CCc4ccccc4C3)s2)cc1)C(=O)NO [Compound 194]	<=0.1 μM	0.8 (≈ 0.392 µg/mL)	0.2 (≈ 0.0979 µg/mL)	0.8 (≈ 0.392 µg/mL)	<=0.1 μM	<=0.1 μM	<=0.1 μM	<=0.1 μM	0.4 (≈ 0.196 µg/mL)	0.8 (≈ 0.392 µg/mL)	–	–	–	–
CC(C)(C(NC(=O)c1ccc(C#Cc2ccc(CNCc3ccncc3)cc2)cc1)C(=O)NO)[N+](=O)[O-] (racemic) [Compound 654]	<=0.1 μM	0.8 (≈ 0.401 µg/mL)	0.4 (≈ 0.201 µg/mL)	0.4 (≈ 0.201 µg/mL)	<=0.1 μM	<=0.1 μM	<=0.1 μM	<=0.1 μM	0.4 (≈ 0.201 µg/mL)	0.4 (≈ 0.201 µg/mL)	–	–	–	–
C=CCNCc1ccc(C#Cc2ccc(C(=O)NC(C(=O)NO)C(C)(C)S(C)(=O)=O)cc2)cc1 (stereo not shown) [C. 602]	<=0.1 μM	1.6 (≈ 0.774 µg/mL)	1.6 (≈ 0.774 µg/mL)	0.8 (≈ 0.387 µg/mL)	<=0.1 μM	<=0.1 μM	<=0.1 μM	<=0.1 μM	0.8 (≈ 0.387 µg/mL)	0.8 (≈ 0.387 µg/mL)	–	–	–	–

Reference: patent US20230000813A1, “COMPOUND FOR THE TREATMENT OF BOVINE OR SWINE RESPIRATORY DISEASE” (Intervet Inc., priority 2016, published 2023)
